From US10390553B2, “Food containing histidine and use thereof” (AJINOMOTO CO., INC., priority 2013, dated 2019)

Legend:
[1] = tested on: males feeling decrease in the quality of sleep and fatigue; test: VAS questionnaires relating to mental energy, single histidine ingestion; assay type: in vivo, human; settings: single ingestion 1.65 g
Description: (§1) Twenty males of 45 years old to less than 65 years old, who received total evaluation of not less than 17 points in the “self-diagnosis fatigue questionnaire” (Fatigue Science Laboratory Inc.) performed in advance, felt decrease in the quality of sleep (generally PSQI≥6), and obtained fatigue factor T scores of not less than 60 points in POMS, were selected, and randomly divided into 2 groups (10 per group). The effect of single ingestion of histidine and control food (equal volume of cellulose) was compared in each group. As shown in the experiment protocol of FIG. 5A, the test subjects took the same meals for 3 days before the experiment, fasted for 10 to 14 hr, and ingested capsules containing 1.65 g of L-histidine as a single ingestion amount (5 capsules (hard capsule #2 WHITE OP B/C) containing 0.33 g of L-histidine alone), or control sample capsules (5 capsules containing equal volume of cellulose). Before and 1 hr after ingestion of capsules, the test subjects answered the VAS questionnaires (fatigue, depression, vague sense, drowsiness, clear thinking, motivation, attentiveness, concentration) relating to mental energy, and cognitive function measurement task CogHealth (under conditions with higher difficulty by simultaneously including mental arithmetic task as well) to measure recognition. Furthermore, they answered VAS questionnaires after completion of CogHealth.

[2] = tested on: CD2F1 mice after burden of insufficient sleep; test: Y-maze test, short-working memory after burden of insufficient sleep, single histidine administration; assay type: in vivo, mouse; settings: single oral dose 1.2 g/kg body weight at ZT14; Y-maze at ZT15; SD+His vs SD+solvent
Description: Using CD2F1 mice (9-week-old) and as shown in the experiment protocol of FIG. 3A, a burden of insufficient sleep is applied to sleep disorder group (SD) for two days. The burden was released at ZT6, and the mice were placed back in the home cage and allowed to rest for 6 hr. The control group (CON) was reared without burden in the home cage. A L-histidine solution was orally administered to a histidine administration group (SD+His) at 2 hr after the start of the dark phase after burden of insufficient sleep (ZT14), to achieve an L-histidine dose of 1.2 g/kg body weight. A solvent (water) was orally administered to the solvent administration group (SD+solvent) and the control group (CON). The Y-maze test was performed at 3 hr from the start of the dark phase (ZT15), and short-working memory was measured.

[3] = tested on: CD2F1 mice after burden of insufficient sleep; test: Locomotor activities in the dark phase after burden of insufficient sleep, continuous histidine administration; assay type: in vivo, mouse; settings: 1.2 w/v % L-histidine solution drunk for 7 days, 1.2 g/kg body weight/day; SD+His vs SD+solvent
Description: Using CD2F1 mice (9-week-old) and as shown in the experiment protocol of FIG. 1A, the mice were chronically allowed to drink a 1.2 w/v % L-histidine solution for 7 days in the histidine ingestion group (SD+His) to achieve a dose of 1.2 g/kg body weight/day. Water was given to the control group (CON) and the solvent ingestion group (SD+solvent). Then, the sleep disorder group (SD) was burdened by insufficient sleep for one day by filling water in the breeding cage at the depth of 0.5 cm. The burden was released at 6 hr from the start of the light phase (ZT6), and the mice were placed back in the home cage and allowed to rest for 6 hr. The control group was reared without burden in the home cage. Thereafter, they were transferred into a cage set under a locomotor activity measurement infrared sensor (Digital acquisition system; NS-DAS-32, Neuroscience Inc, Tokyo, Japan) under fasting and water-deprivation. The locomotor activities were measured and the data was collected by a multidigital counter (Neuroscience Inc, Tokyo, Japan).

[4] = tested on: CD2F1 mice after burden of insufficient sleep; test: Locomotor activities under novel environment after burden of insufficient sleep, single histidine administration; assay type: in vivo, mouse; settings: single oral dose 1.2 g/kg body weight at ZT14; measured for 3 hr from ZT15; SD+His vs SD+solvent
Description: Using CD2F1 mice (9-10-week-old) and as shown in the experiment protocol of FIG. 2A, a burden of insufficient sleep is applied to sleep disorder group (SD) for one day. The burden was released at ZT6, and the mice were placed back in the home cage and allowed to rest for 6 hr. The control group (CON) was reared without burden in the home cage. A 1.2 w/v % L-histidine solution was orally administered to a histidine administration group (SD+His) at 2 hr after the start of the dark phase after burden of insufficient sleep (ZT14), to achieve an L-histidine dose of 1.2 g/kg body weight. A solvent (water) was orally administered to the solvent administration group (SD+solvent) and the control group (CON). The locomotor activities under novel environment were measured for 3 hr from 3 hr after the start of the dark phase (ZT15).

[5] = tested on: mouse reared under 24 hr dark conditions; test: Biorhythm phase regulating action, locomotor behavioral pattern in free run cycle under 24 hr dark conditions; assay type: in vivo; settings: for phase shift of the behavior start time (circadian rhythm): feed with 45 mg L-histidine per 1 g, 4 hours per day for 4 days
Description: A phase regulating action of histidine on a mouse reared under 24 hr dark conditions was evaluated. When a mouse is reared under 24 hr dark conditions, the mouse starts to act in a cycle specific to the biological clock (also referred to as free run, meaning freed from synchrony), since the outside information (light-dark cycle of light) cannot be obtained. When the free run cycle is converted to 24 hr and indicated as circadian time on the horizontal axis, 12 hours of the former half thereof is called a subjective light period (time zone judged to be daytime by biological clock: CT0-12), and the latter half is called a subjective dark period (time zone judged to be night by biological clock: CT12-24). Under such conditions, locomotor activity of mice (behavioral pattern in free run cycle) was measured using an emission infrared detector type locomotor activities sensor (Digital acquisition system; NS-AS01, Neuroscience Inc, Tokyo, Japan). Furthermore, a feed added with 45 mg of L-histidine per 1 g of a general feed was prepared, and used to replace the general feed for only 4 hours in one day to allow for ingestion. The time zone for ingestion was CT2-6 (subjective light period) or CT14-18 (subjective dark period). Such replacement of the feed was performed for 4 days, and change of phase of the behavioral pattern was judged.

[6] = tested on: males feeling decrease in the quality of sleep and fatigue; test: Safety of histidine ingestion: general properties, hematology, blood biochemistry; assay type: in vivo, human; settings: 2 weeks continuous and single, 1.65 g
Description: Twenty males of 45 years old to less than 65 years old, who received total evaluation of not less than 17 points in the “self-diagnosis fatigue questionnaire” (Fatigue Science Laboratory Inc.) performed in advance, felt decrease in the quality of sleep (generally PSQI≥6), and obtained fatigue factor T scores of not less than 60 points in POMS, were selected, and randomly divided into 2 groups (10 per group). A crossover test, including ingesting histidine and control food (equal volume of cellulose) each for 14 days, was performed in each group.
As shown in the experiment protocol of FIG. 4A, the test subjects ingested capsules containing 1.65 g of L-histidine as a daily ingestion amount (5 capsules (hard capsule #2 WHITE OP B/C) containing 0.33 g of L-histidine alone), or control sample capsules (5 capsules containing equal volume of cellulose) for 14 days. After the completion of 14 day ingestion, a 14 day resting period was taken. After the resting period, they ingested the capsules not ingested before the resting period. […]

[7] = tested on: clock genes (Bmal1, Dbp, Per1, Per2, Reverb-alpha); test: Oscillation of expression of clock genes of the auricle in aged mice; assay type: in vivo, mouse; settings: aged mice 22 to 24 months, 1.2 w/v % L-histidine solution for 9 days
Description: Aged mice of 22 to 24 months of age being reared under generally light and dark environment were divided into two groups, and the effect of the ingestion of histidine drinking solution was studied. The histidine ingestion period was set to 9 days, during which period aqueous L-histidine solution (corresponding to L-histidine 1.2 w/v %) was given for ingestion by mounting a water inlet on a 50 mL centrifuge tube, whereby about 1.2 g/kg body weight of histidine was ingested per day. In the histidine ingestion group of aged mice, samples were taken from the auricle by changing the position over time on 8 to 9 days from the start of the ingestion of the aqueous histidine solution, and 5 kinds of clock genes (Bmal1, Dbp, Per1, Per2, Reverb-alpha) of the peripheral tissue were analyzed as an index of biorhythm. In the simultaneous stage, the clock genes of the auricle of the aged mice and young mice (4 months old) that ingested tap water were analyzed as comparison targets. […] To be specific, gene expression of the clock gene was quantified at each time point, and the amplitudes and phase of the oscillation of expression of the clock gene of each individual were determined by approximation on the cosine curve. […]

[8] = tested on: males feeling decrease in the sleep quality and fatigue; test: VAS questionnaires relating to mental energy, histidine ingestion for 14 days; assay type: in vivo, human; settings: 1.65 g daily for 14 days vs control food, p<0.05
Description: Twenty males of 45 years old to less than 65 years old, who received total evaluation of not less than 17 points in the “self-diagnosis fatigue questionnaire” (Fatigue Science Laboratory Inc.) performed in advance, felt decrease in the quality of sleep (generally PSQI≥6), and obtained fatigue factor T scores of not less than 60 points in POMS, were selected, and randomly divided into 2 groups (10 per group). A crossover test, including ingesting histidine and control food (equal volume of cellulose) each for 14 days, was performed in each group. As shown in the experiment protocol of FIG. 4A, the test subjects ingested capsules containing 1.65 g of L-histidine as a daily ingestion amount (5 capsules (hard capsule #2 WHITE OP B/C) containing 0.33 g of L-histidine alone), or control sample capsules (5 capsules containing equal volume of cellulose) for 14 days. After the completion of 14 day ingestion, a 14 day resting period was taken. After the resting period, they ingested the capsules not ingested before the resting period. On the initial day and the day after completion of the capsule ingestion period, the test subjects answered POMS and the VAS questionnaires (fatigue, depression, vague sense, drowsiness, clear thinking, motivation, attentiveness, concentration) relating to mental energy, and cognitive function measurement task CogHealth (under higher difficulty conditions by simultaneously including mental arithmetic task as well) to measure recognition. Furthermore, they answered VAS questionnaires after completion of CogHealth.

[9] = tested on: males feeling decrease in the sleep quality and fatigue; test: Cognitive function measurement task CogHealth, histidine ingestion for 14 days; assay type: in vivo, human; settings: 1.65 g daily for 14 days vs control food
Description: (§2) Twenty males of 45 years old to less than 65 years old, who received total evaluation of not less than 17 points in the “self-diagnosis fatigue questionnaire” (Fatigue Science Laboratory Inc.) performed in advance, felt decrease in the quality of sleep (generally PSQI≥6), and obtained fatigue factor T scores of not less than 60 points in POMS, were selected, and randomly divided into 2 groups (10 per group). A crossover test, including ingesting histidine and control food (equal volume of cellulose) each for 14 days, was performed in each group. As shown in the experiment protocol of FIG. 4A, the test subjects ingested capsules containing 1.65 g of L-histidine as a daily ingestion amount (5 capsules (hard capsule #2 WHITE OP B/C) containing 0.33 g of L-histidine alone), or control sample capsules (5 capsules containing equal volume of cellulose) for 14 days. After the completion of 14 day ingestion, a 14 day resting period was taken. After the resting period, they ingested the capsules not ingested before the resting period. […]

[10] = tested on: males feeling decrease in the quality of sleep and fatigue; test: Cognitive function measurement task CogHealth, single histidine ingestion; assay type: in vivo, human; settings: single ingestion 1.65 g, 1 hr after ingestion, vs control food
Description: as §1

[11] = tested on: males feeling decrease in the sleep quality and fatigue; test: POMS after histidine ingestion for 14 days (crossover vs control food); assay type: in vivo, human; settings: 1.65 g L-histidine daily for 14 days vs control food; paired t-test p<0.05
Description: as §2

[12] = 1 hr after ingestion, before cognitive functioning test, p<0.05
[13] = before cognitive functioning test

`N[C@@H](Cc1c[nH]cn1)C(=O)O` [histidine, L-histidine] was tested, and the “VAS sense of concentration” value ([1]; 1 hr after ingestion, before cognitive functioning test) was “tended to increase”, the “VAS sense of attentiveness” value [1, 12] was “significantly increased” and the “VAS sense of clear thinking” value [1, 12] was “significantly increased”. The “VAS sense of concentration” value ([1]; after completion of CogHealth) was “tended to increase”, the “VAS sense of depression” value ([1]; after completion of CogHealth) was “tended to decrease” and the “VAS sense of vagueness” value ([1]; after completion of CogHealth, p<0.05) was “significantly decreased”. The “alternation behavior (short-working memory)” value [2] was “significant suppression of a decrease of alternation behavior”, the “locomotor activities in the dark phase” value [3] was “significant suppression of a decrease of locomotor activities in the dark phase” and the “locomotor activities under novel environment” value [4] was “tendency of suppression of a decrease in the locomotor activities”. For the same compound, the “phase shift of the behavior start time (circadian rhythm)” value ([5]; ingestion in CT2-6 (subjective light period)) was “significantly advances”, the “phase shift of the behavior start time (circadian rhythm)” value ([5]; ingestion in CT14-18 (subjective dark period)) was “tended to advance” and the “shortening of the cycle of activity rhythm, mean” value ([5]; ingestion of histidine in CT2-6, n=4) was 0.34 ± 0.08 h. For the same compound, the “variation in general properties, hematology, and blood biochemistry” value [6] was “did not show problematic variation”, the “phase of the oscillation of expression of the clock gene” value ([7]; about 1.2 g/kg body weight per day, vs aged mice on tap water) was “suppressed phase advancement” and the “average phase of measured 5 clock genes compared to young mice” value ([7]; compared to young mice (4 months old)) was “reached the same level as in young mice”. For the same compound, the “VAS sense of attentiveness” value ([8]; after completion of CogHealth) was “significantly increased”, the “VAS sense of depression” value ([8]; after completion of CogHealth) was “significantly decreased” and the “VAS sense of motivation” value ([8]; after completion of CogHealth) was “significantly increased”. The “VAS sense of attentiveness” value [8, 13] was “significantly increased”, the “VAS sense of clear thinking” value [8, 13] was “significantly increased” and the “VAS sense of motivation” value [8, 13] was “significantly increased”. The “reaction time of cognitive function measurement task” value [9] was “shortened”, the “reaction time of delayed recall task” value ([9]; paired t-test p<0.05) was “significantly decreased” and the “indices relating to cognition” value [10] was “did not show a significant change”. For the same compound, the “work time in 5 kinds of brain function measurement indices” value [10] was “shortened” and the “fatigue factor scores of POMS” value [11] was “significantly decreased”.
